According to publication PMC11595719, “Design of Ctenophore Ca^2+-Regulated Photoprotein Berovin Capable of Being Converted into Active Protein Under Physiological Conditions: Computational and Experimental Approaches” (Life, 2024):

Legend:
Test in all cases: Trp fluorescence quenching at […] nm
Type in all cases: binding
[1] = target: T1, berovin (apo-berovin, BAwt) (Beroe abyssicola, UniProt H8ZZK1, K90A/N107S)
T1 construct: gene BA2; monomeric

[2] = target: T2, berovin (apo-berovin, BAwt) (Beroe abyssicola, UniProt H8ZZK1, K90M)
T2 construct: gene BA2; monomeric
T2 sequence (H8ZZK1 entry or part of it K90M): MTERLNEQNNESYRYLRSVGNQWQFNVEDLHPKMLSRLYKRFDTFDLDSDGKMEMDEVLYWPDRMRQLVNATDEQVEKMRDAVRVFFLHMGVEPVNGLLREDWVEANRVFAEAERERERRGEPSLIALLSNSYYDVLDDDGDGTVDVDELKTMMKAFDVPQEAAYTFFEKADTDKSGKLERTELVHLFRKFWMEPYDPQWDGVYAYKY

berovin (apo-berovin) = target: T3, berovin (apo-berovin) (Beroe abyssicola, UniProt H8ZZK1, K90M/N107S/W103F)
T3 construct: gene BA2; monomeric
T3 sequence (H8ZZK1 entry or part of it K90M/W103F/N107S): as the sequence (H8ZZK1 entry or part of it K90M) above, with W103F, N107S counted along it

[3] = target: T4, berovin (apo-berovin, BAwt) (Beroe abyssicola, UniProt H8ZZK1)
T4 construct: gene BA2; monomeric
T4 sequence (H8ZZK1 1-208): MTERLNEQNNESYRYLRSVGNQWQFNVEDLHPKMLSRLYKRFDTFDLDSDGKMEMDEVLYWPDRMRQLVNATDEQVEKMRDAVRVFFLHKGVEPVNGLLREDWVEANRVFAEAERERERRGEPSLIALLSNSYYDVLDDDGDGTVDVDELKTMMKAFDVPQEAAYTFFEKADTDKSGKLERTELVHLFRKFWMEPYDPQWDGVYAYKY

T1 sequence (H8ZZK1 entry or part of it K90A/N107S): as the sequence (H8ZZK1 entry or part of it K90M) above, with M90A, N107S counted along it

Kd [1]: 1.3 ± 0.15 µM
Kd [2]: 2.61 ± 0.28 µM
Kd (berovin (apo-berovin)): 6.62 ± 0.54 µM
Kd [3]: 4.72 ± 0.36 µM
SMILES: Oc1ccc(Cc2nc3c(Cc4ccccc4)nc(-c4ccc(O)cc4)cn3c2O)cc1 [coelenterazine]
